Results: US8110703B2, “Retinoid derivative and pharmaceutical composition and use thereof” (Anhui Medical University, priority 2008, dated 2012)
Values joined by “and” are separate entries in the source; they are usually repeats but may differ in a detail not shown here. Equal entries are not always repeated. Marks after values point to notes of the source that are not given here.

How the values were obtained:
Format in all cases: cell-based
HepG2 cells [1] = test: AFP secretory volume of HepG2 cells; conditions: HepG2 cells, DMSO
NB4 cells = test: Cell cycle analysis by flow cytometer, NB4; set-up: S %: dose or concentration left out as unconfirmed; conditions: 72 h
Outline: (§1)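 NB4 and K562 cells in RPMI1640 with 10% FBS were exposed to compounds […] for 72 h. Then they were fixed in 70% cold ethanol and stained with 5 ug/ml propidium iodide for cell-cycle profiling by flow cytometry.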

liver cancer HepG2 cells = test: MTT cell growth and proliferation experiment, HepG2; set-up: key to Inhibition Rate: (control OD570 − test OD570)/control OD570, as fraction; conditions: for Inhibition Rate: fraction
Outline: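 After treatment, 20 ul/well of MTT (5 g/L) was added for 4 h at 37° C. The medium was then removed and 20 ul/well DMSO added to dissolve the crystals. Plates were shaken 10 min and read at 570 nm. Inhibition rate was (control OD570 − experimental OD570)/control OD570 × 100%, averaged over three experiments.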

A549 lung cancer cells = test: MTT cell growth and proliferation experiment, A549; set-up: key to Inhibition Rate: (control OD570 − test OD570)/control OD570, as fraction
Outline: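 Cells in DMEM/10% calf serum were treated with retinoic acid derivatives at 1, 5 and 10 ug/ml (DMSO <0.1%) for 3 d, then with MTT for 4 h at 37° C. Read-out was OD570 after DMSO solubilisation, giving % growth inhibition versus control wells. A time-course at 10 umol/L ran for 1, 2, 3 and 7 days.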

HepG2 cells [2] = test: Cell cycle and apoptosis by flow cytometry, HepG2; conditions: HepG2, flow cytometry
A549 cells = test: Differentiation index: CEA secretory volume of A549 cells; conditions: A549 culture supernatant, 10 ug/ml, 3 d, DMSO
Outline: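 Cells exposed 3 days to compounds at 10 μg/ml, alongside untreated, DMSO/ethanol solvent and 10 μg/ml fenretinide controls. Culture supernatant taken after centrifugation; CEA content measured by kit using enzyme kinetics.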

K562 cells = test: Cell cycle analysis by flow cytometer, K562; set-up: S %: dose or concentration left out as unconfirmed; conditions: 72 h
Outline: as §1

HepG2 cells [3] = test: γ-GT specific activity of HepG2 cells; conditions: DMSO
[4] = HepG2, MTT time gradient, 10 ug/ml, 1 d
[5] = HepG2, MTT time gradient, 10 ug/ml, 2 d
[6] = HepG2, MTT time gradient, 10 ug/ml, 3 d
[7] = HepG2, MTT time gradient, 10 ug/ml, 7 d
[8] = HepG2, Table 5 repeat MTT, 10 ug/ml, 3 days, DMSO

## CC1=C(/C=C/C(C)=C/C=C/C(C)=C/C(=O)Nc2cccc(C(F)(F)F)c2)C(C)(C)CCC1 [Example 3a-02, (3-trifluoromethylphenyl)-(all-trans)-3,7-dimethyl-9-(2,6,6-trimethyl-1-cyclohexen-1-yl)-2,4,6,8-nonatetraenoic acid amide]
HepG2 cells [1]
  AFP: 15.6 µg/L
NB4 cells
  G1 %: 45.83%
  G2 %: 2.87%
  S %: 51.30%
Liver cancer HepG2 cells; HepG2, MTT OD 570 nm, 1 ug/ml, 3 d, solvent not given
  OD Value (x ± s): 1.19 ± 0.50
Liver cancer HepG2 cells; HepG2, MTT OD 570 nm, 5 ug/ml, 3 d, solvent not given
  OD Value (x ± s): 0.92 ± 0.27
Liver cancer HepG2 cells; HepG2, MTT OD 570 nm, 10 ug/ml, 3 d, solvent not given
  OD Value (x ± s): 0.94 ± 0.41
Liver cancer HepG2 cells; [4]
  OD Value (x ± s): 1.43 ± 0.07
  Inhibition Rate: 0.17
Liver cancer HepG2 cells; [5]
  OD Value (x ± s): 0.81 ± 0.12
  Inhibition Rate: 0.52
Liver cancer HepG2 cells; [6]
  OD Value (x ± s): 0.55 ± 0.03
  Inhibition Rate: 0.55
Liver cancer HepG2 cells; [7]
  OD Value (x ± s): 0.32 ± 0.12
  Inhibition Rate: 0.76
Liver cancer HepG2 cells; HepG2, MTT, 1 ug/ml, 3 d, solvent not given
  Inhibition Rate: 0.30
Liver cancer HepG2 cells; HepG2, MTT, 5 ug/ml, 3 d, solvent not given
  Inhibition Rate: 0.45
Liver cancer HepG2 cells; HepG2, MTT, 10 ug/ml, 3 d, solvent not given
  Inhibition Rate: 0.45
Liver cancer HepG2 cells; [8]
  OD Value (x ± s): 1.331 ± 0.067
  Inhibition Rate: 0.385*
A549 lung cancer cells; A549, MTT OD 570 nm, 1 ug/ml, 3 d, solvent DMSO (D)
  OD Value (x ± s): 1.551 ± 0.083 and 1.517 ± 0.100
A549 lung cancer cells; A549, MTT OD 570 nm, 5 ug/ml, 3 d, solvent DMSO (D)
  OD Value (x ± s): 1.510 ± 0.193 and 1.357 ± 0.159
A549 lung cancer cells; A549, MTT OD 570 nm, 10 ug/ml, 3 d, solvent DMSO (D)
  OD Value (x ± s): 1.296 ± 0.192 and 0.939 ± 0.040
A549 lung cancer cells; A549, MTT time gradient, 10 ug/ml, 1 d
  OD Value (x ± s): 0.617 ± 0.072
A549 lung cancer cells; A549, MTT time gradient, 10 ug/ml, 1 d, fraction
  Inhibition Rate: 0.327
A549 lung cancer cells; A549, MTT time gradient, 10 ug/ml, 2 d
  OD Value (x ± s): 0.703 ± 0.025
A549 lung cancer cells; A549, MTT time gradient, 10 ug/ml, 2 d, fraction
  Inhibition Rate: 0.519
A549 lung cancer cells; A549, MTT time gradient, 10 ug/ml, 3 d
  OD Value (x ± s): 0.229 ± 0.010
A549 lung cancer cells; A549, MTT time gradient, 10 ug/ml, 3 d, fraction
  Inhibition Rate: 0.753
A549 lung cancer cells; A549, MTT time gradient, 10 ug/ml, 7 d
  OD Value (x ± s): 0.106 ± 0.035
A549 lung cancer cells; A549, MTT time gradient, 10 ug/ml, 7 d, fraction
  Inhibition Rate: 0.949
A549 lung cancer cells; A549, MTT, 1 ug/ml, 3 d, solvent DMSO (D), given as fraction
  Inhibition Rate: 0.169 and 0.187
A549 lung cancer cells; A549, MTT, 5 ug/ml, 3 d, solvent DMSO (D), given as fraction
  Inhibition Rate: 0.191 and 0.273
A549 lung cancer cells; A549, MTT, 10 ug/ml, 3 d, solvent DMSO (D), given as fraction
  Inhibition Rate: 0.305 and 0.497
HepG2 cells [2]
  Apoptosis Rate (%): 30.2* %
  G0-G1 (%): 40.3%
  G2-M (%): 2.71%
  S %: 27.9%
A549 cells
  CEA: 2.8 µg/L
K562 cells
  G1 %: 39.7%
  G2 %: 6.0%
  S %: 54.2%
HepG2 cells [3]
  γ-GT: 35.6 ± 1.0 U/L
